# Measurements taken from patent US20060270640A1, “Method of preventing, medicating, and/or treating hypocalcemia of domestic mammal” (Mercian Corporation, priority 2004, published 2006).
# Columns and labels:
# [1] = type: in vivo, cow; conditions: intravaginal 1 μg/kg 1α-VD3; two Holstein cows
# Text: Biochemical changes in blood were observed by administering 1α-hydroxyvitamin D3 to the vaginal cavities of cows.
# Test animals used were two Holstein dairy cows (Cow A and Cow B) described below. During a test period, the cows were raised by the free grazing of hay (free water drinking) in a field paddock as well as feeding with 2 kg/day of formula feed (64.1% TDN, 13.6% CP, 0.2% Ca, 0.09% Mg, and 1.39% K in DM).
# Cow A: 35months old, female, single birth, ovariectomized, 560 kg
# Cow B: 34months old, female, single birth, ovariectomized, 580 kg
# The following test drug was used: • 1α-hydroxyvitamin D3 (1α-VD3; manufactured by Nisshin Pharma Co., Ltd., powder).
# Test contents and schedules were as follows: • 1. Control test: intravaginal administration of 4 mL of 20% ethanol (for 1 week); and • 2. 1α-VD3 test: intravaginal administration of 1 μg/kg (by body weight) of 1α-VD3 dissolved in 4 mL of 20% ethanol (for 2 weeks).
# Intravaginal administration was performed by the following procedure:
# The above-described reagent was prepared on ice water and then administered, with a 10-mL plastic syringe, to a deep region in the vagina of the test cows previously allowed to urinate and vulva skin was immediately closed with an instant adhesive.
# In each test, blood was collected immediately before administration (0 hour) and at 0.5, 1, 2, 3, 6, 12, 24, 48, and 72 hours (hrs) after administration. […]
# [2] = Intravaginal administration of VitAD3E to cows, biochemical changes in blood (Comparative Example 1); conditions: intravaginal VitA 10,000,000 IU + VitD3 5,000,000 IU + VitE 920 IU in 8 mL with 20% ethanol per cow; two Holstein cows
# Protocol: Vitamin A, vitamin D3, and vitamin E were administered to the vaginal cavities of cows to observe biochemical changes in blood after administration in the same manner as in Example 1 except that test drugs, test contents, and biochemical examination items of blood were as described in the following (1) to (3).
# • Vitamin A (VitA; bulk for drug production, liquid); • Vitamin D3 (VitD3; bulk for drug production, liquid); and • Vitamin E (VitE; bulk for drug production, liquid). (2) Test Contents • VitAD3E test: intravaginal administration of VitA (10,000,000 IU)+VitD3 (5,000,000 IU)+VitE (920 IU) brought up to 8 mL per cow with 20% ethanol. (3) Biochemical Examination Items of Blood • Control test: VitA, 25-hydroxyvitamin D3 (25-OHD3), VitE, calcium (Ca), inorganic phosphorus (iP), and magnesium (Mg); and • VitAD3E test: VitA, 25-OHD3, and VitE.
# The shifts of VitA, 25-OHD3, and VitE concentrations in blood by the intravaginal administration of VitAD3E were observed by the above-described procedure.
Compound,effect on Ca metabolism [1],intravaginal absorption of the drug [2]
"C=C1/C(=C\C=C2/CCC[C@]3(C)[C@@H]([C@H](C)CCCC(C)C)CC[C@@H]23)C[C@@H](O)C[C@@H]1O [1α-VD3, 1α-hydroxyvitamin D3]",affecting Ca metabolism,
"C=C1CC[C@H](O)C/C1=C/C=C1\CCC[C@]2(C)[C@@H]([C@H](C)CCCC(C)C)CC[C@@H]12 [vitamin D3, Vitamin D3]",,No evidence that administered drugs were absorbed from the vaginal wall was confirmed
Vitamin E,,No evidence that administered drugs were absorbed from the vaginal wall was confirmed
